Source: patent publication US20120129843A1, “PYRIDYL-THIAZOLYL INHIBITORS OF PRO-MATRIX METALLOPROTEINASE ACTIVATION” (priority 2010, published 2012)

Tests used:
[1] = biological target: T1, MMP9 processing by HFL-1 cells (Homo sapiens, UniProt P14780); assay: Activation of proMMP9 by human fetal lung fibroblast (HFL-1) cultures (Western blot); assay type: cell-based; conditions: 3.3 μM, 30 nM elastase, final 72 hrs; mAb-L51/82
T1 construct: host or cells: HFL-1 human fetal lung fibroblasts, TNFα plus neutrophil elastase
Protocol: Compound-α was assessed additionally for ability to block the maturation of proMMP9 to active MMP9 in cultures of human fetal lung fibroblasts (HFL-1, American Type Culture Collection #CCL-153). Unlike rat synoviocytes, HFL-1 cells were unable to process proMMP9 to the active form without addition of neutrophil elastase. […] Rather, the function of elastase in this assay may be to inactivate tissue inhibitors of matrix metalloproteinases (TIMPs) that repress endogenous pathways of MMP9 activation (Am J Respir Crit. Care Med; 1999; 159:1138-46).
HLF-1 were maintained in monolayer culture in DMEM with 10% FCS and were used between passage numbers 5-15. HLF-1 were embedded in collagen gels as described for rat SCW synoviocytes (vida supra). Half mL gels containing 0.4 million cells were dislodged into wells of 12 well Costar plates containing 1 mL/well of DMEM adjusted to contain 0.05% BSA and 100 ng/mL human TNFα (R&D Systems Cat #210-TA/CF). After overnight culture (37° C. and 5% CO2) wells were adjusted to contain an additional 0.5 mL of DMEM containing 0.05% BSA and with or without 13.2 μM Compound-α (final concentration was 3.3 μM Compound-α). Next, cultures were adjusted to contain 30 nM human elastase (Innovative Research). The plates were cultured an additional 72 hrs, at which time MMP9 secreted into the conditioned media was bound to gelatin-sepharose and evaluated by Western blot analysis as described for the rat synoviocyte cultures (vida supra). mAb-51/82 detected three forms of MMP9 in HFL-1 cultures.
These included a form of approximately 100 kD with mobility similar to recombinant rat proMMP9, an approximately 80 kD form with mobility similar to rat active MMP9, and an approximately 86 kD intermediate form. In the absence of Compound-α, most of the MMP9 was present as the 80 kD form. In the presence of Compound-α, the 80 kD form was a minor fraction of the total signal while nearly half of the signal were contributed each by the 100 kD and 86 kD forms. […]
A second experiment was performed to determine if the 80 kD form was mature active MMP9 and to determine the potency of Compound-α as an inhibitor of MMP9 maturation in this assay. HFL-1 cells embedded in collagen gels were cultured as described above in the presence of TNFα overnight and the cultures were then adjusted to contain 30 nM elastase and graded concentrations of Compound-α for an additional 72 hrs at which time MMP9 secreted into the conditioned media was bound to gelatin-sepharose and evaluated by Western blot analysis for active MMP9 using pAb-1246 raised against the N-terminal neoepitope of active MMP9 (Table 5). In the absence of Compound-α, pAb-1246 readily detected MMP9 with an electrophoretic mobility of approximately 80 kD. […]

[2] = biological target: T2, MMP9 in ankles of SCW-induced rats (Rattus norvegicus, UniProt P50282); assay: Pro and active MMP9 in ankles of rats with SCW-induced arthritis by Western blot; assay type: in vivo; conditions: Day 26, four hours after AM dose, FIG. 3A lanes 4-9
T2 construct: from tissue; host or cells: tibia-tarsus joints (ankles) of female Lewis rats
Protocol: Hind-limbs were skinned, severed just above the tibia-tarsus joint and below the metatarsals, and the tibia-tarsus joints (ankles) were weighed, snap frozen and pulverized on dry ice using a hammer and anvil. The pulverized tissue was suspended in 3 volumes (w:v) of ice-cold homogenization buffer containing 50 mM Tris pH 7.5, 150 mM NaCl, 5 mM EDTA, 1% Triton X100, 0.05% Brij 30, 10% dimethylsulfoxide and Complete EDTA-free Protease Inhibitor Cocktail (Roche Diagnostics). The suspended tissue was homogenized sequentially with a Kinematica AG Polytron and a Dounce homogenizer. Homogenates were centrifuged at 16,000×g for 10 min at 4° C. and the soluble fractions were saved. Dimethylsulfoxide was removed from a portion of each soluble fraction using PD MiniTrap™ G-25 desalting columns (GE Healthcare). Homogenates (0.25 mL), free of DMSO, were diluted with an equal volume of binding buffer (i.e., homogenization buffer without dimethylsufoxide) and adjusted to contain 50 μL of a 50% slurry of gelatin-conjugated sepharose. […]
To induce arthritis, Female Lewis (LEW/N) rats, 5-6 weeks of age (80-100 g) were injected (i.p.) with SCW PG-PS as described above. […] Each ankle was measured 3 times and averaged, and treatment groups were randomized based on ankle thickness (Table 6). […]

T1 sequence (P14780 20-707): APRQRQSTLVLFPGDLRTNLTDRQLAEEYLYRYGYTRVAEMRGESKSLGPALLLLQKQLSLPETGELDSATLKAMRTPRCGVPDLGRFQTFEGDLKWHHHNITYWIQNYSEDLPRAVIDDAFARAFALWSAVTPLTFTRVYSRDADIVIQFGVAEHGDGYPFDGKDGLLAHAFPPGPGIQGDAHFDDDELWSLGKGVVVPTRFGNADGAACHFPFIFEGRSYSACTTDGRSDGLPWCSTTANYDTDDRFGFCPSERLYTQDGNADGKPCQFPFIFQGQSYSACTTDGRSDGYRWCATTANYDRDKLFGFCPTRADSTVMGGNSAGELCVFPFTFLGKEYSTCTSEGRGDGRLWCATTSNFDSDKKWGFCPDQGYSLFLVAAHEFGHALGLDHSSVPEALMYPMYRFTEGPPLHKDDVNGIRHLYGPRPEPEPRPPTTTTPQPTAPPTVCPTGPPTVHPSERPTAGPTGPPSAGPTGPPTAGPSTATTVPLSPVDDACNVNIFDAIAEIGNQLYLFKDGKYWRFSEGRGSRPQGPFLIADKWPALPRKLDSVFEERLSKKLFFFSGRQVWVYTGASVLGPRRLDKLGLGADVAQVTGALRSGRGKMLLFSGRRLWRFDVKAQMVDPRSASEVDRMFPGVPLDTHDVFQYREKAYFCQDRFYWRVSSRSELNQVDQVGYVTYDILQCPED
T2 sequence (P50282 20-708): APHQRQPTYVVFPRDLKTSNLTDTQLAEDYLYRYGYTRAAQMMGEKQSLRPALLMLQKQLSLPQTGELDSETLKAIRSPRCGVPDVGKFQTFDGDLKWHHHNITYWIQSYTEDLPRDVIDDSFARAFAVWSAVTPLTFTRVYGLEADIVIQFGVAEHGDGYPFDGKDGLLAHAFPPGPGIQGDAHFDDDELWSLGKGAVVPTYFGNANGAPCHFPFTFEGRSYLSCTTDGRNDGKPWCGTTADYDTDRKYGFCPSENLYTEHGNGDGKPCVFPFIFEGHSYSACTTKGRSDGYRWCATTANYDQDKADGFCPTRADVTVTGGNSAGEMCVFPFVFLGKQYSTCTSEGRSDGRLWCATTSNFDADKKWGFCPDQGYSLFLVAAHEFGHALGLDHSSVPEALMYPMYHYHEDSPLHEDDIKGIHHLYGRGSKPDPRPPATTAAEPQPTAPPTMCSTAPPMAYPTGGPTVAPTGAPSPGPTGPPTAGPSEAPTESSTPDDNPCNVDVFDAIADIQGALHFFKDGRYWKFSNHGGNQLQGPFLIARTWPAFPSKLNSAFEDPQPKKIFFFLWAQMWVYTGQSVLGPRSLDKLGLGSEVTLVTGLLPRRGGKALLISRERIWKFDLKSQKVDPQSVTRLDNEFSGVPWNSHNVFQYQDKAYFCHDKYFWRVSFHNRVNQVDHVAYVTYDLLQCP

Cc1nc(C)c(-c2csc(Nc3cc(S(N)(=O)=O)ccc3OC(C)C)n2)s1 [Compound-α, 3-(2′,4′-Dimethyl-[4,5′]bithiazolyl-2-ylamino)-4-isopropoxy-benzenesulfonamide.HBr]
Percent of total signal, 80 kD [1]: 7% | Percent of total signal, 86 kD [1]: 47% | Percent of total signal, 100 kD [1]: 46% | Signal, Total [1]: 91346 INT*mm^2 | abundance of proMMP9 in ankles [2]: did not reduce the abundance of proMMP9 | abundance of proMMP9 in ankles ([2]; listed as Compound α): did not reduce the abundance of proMMP-9
